Measurements from PMC12040169 (PLOS Biology, 2025).

What was measured:
[1] = tested on: T1, CTL2-GFP (C. trachomatis L2/434/Bu, GFP-expressing); test: microbe, parasite or virus in culture; design: Intracellular C. trachomatis growth in HeLa cells, bulk GFP fluorescence relative to DMSO; conditions: Chlamydia trachomatis, HeLa, 28.5 h; bulk GFP, mean of 2; read-out: % of control remaining
T1 construct: L2/434/Bu, GFP-expressing
Protocol: MICs were calculated as described above.

[2] = tested on: T2, C. trachomatis L2/434/Bu expressing GFP (CTL2-GFP); test: microbe, parasite or virus in culture; design: C. trachomatis total inclusion area by high-content imaging, normalised to DMSO; conditions: Chlamydia trachomatis, HeLa, 28.5 h; total inclusion area; read-out: % of control remaining
T2 construct: L2/434/Bu GFP intracellular growth in HeLa cells
Source text: We screened a library of 36,785 small molecules displaying drug-like properties and covering a wide chemical space (Fig 1A and S2A Data). In this process, we also complemented the assay described above with an imaging-based readout (Fig 1B). After measurements of bulk GFP and resorufin fluorescence, cells were fixed, stained with the DNA dye Hoechst, and imaged at a high-content imaging platform to detect chlamydial inclusions (GFP) and host cell nuclei (Hoechst). The total area and number of inclusions in individual wells and the number of nuclei then served as additional proxies for chlamydial growth and host cell viability. […] MICs were calculated as described above.

in vitro = test: in vitro; design: Viability of infected HeLa host cells, resazurin conversion, bulk resorufin fluorescence relative to DMSO; conditions: human, hela cells; bulk resorufin, mean of 2

SMILES | activity at 1 µM [1] | activity at 5 µM [1] | activity at 10 µM [1] | activity at 1 µM [2] | activity at 5 µM [2] | activity at 10 µM [2] | viability at 28.5 h, 1 µM (in vitro) | viability at 28.5 h, 5 µM (in vitro) | viability at 28.5 h, 10 µM (in vitro)
CC(=O)NC[C@H]1CN(c2ccc(-c3nnc(C(C)O)s3)c(F)c2)C(=O)O1 (stereo partly drawn) [CBK017968] | 51.4% | 2.06% | 5.93% | 46.6% | 0.644% | 0.166% | 91.4% | 90.3% | 90.8%
Cc1noc(-c2ccc3c(c2O)OCCO3)c1-c1ccc(Cl)cc1 [CBK018086] | 62.5% | 3.44% | 2.13% | 73.6% | 0.782% | 0.691% | 96.5% | 97.6% | 99%
CC(=O)NC[C@H]1CN(c2ccc3c(c2)CCN(C(C)=O)CC3)C(=O)O1 [CBK018491] | 112% | 8.52% | 0.0674% | 57.6% | 10.2% | 1.08% | 91.8% | 95.1% | 112%
CC(=O)NC[C@H]1CN(c2ccc3c(c2)CCN(C(=O)Oc2ccccc2)CC3)C(=O)O1 [CBK018498] | 125% | 13.7% | 1.02% | 72.8% | 12.5% | 3.33% | 98.7% | 94.2% | 97.3%
CC(=O)NC[C@H]1CN(c2ccc3c(c2)CCN(C(=O)Cc2ccccc2)CC3)C(=O)O1 [CBK018499] | 37.5% | 2.41% | 5.46% | 38% | 0.495% | 0.215% | 92.9% | 95.9% | 92.1%
CCCCc1ccc(Nc2csc(N)n2)cc1 [CBK020594] | 67.9% | 10.8% | 6.72% | 58.1% | 0.609% | 0.496% | 89.3% | 84.9% | 76.9%
C1=C(CCNCCc2ccccc2)c2ccccc2C12CCCC2 [CBK024723] | 137% | 49.2% | 3.86% | 112% | 42.8% | 0.759% | 96.5% | 89.8% | 97.2%
CN1CCCN(c2cc(C(F)(F)F)c3scc(C(=O)NCc4cccc(F)c4F)c3n2)CC1 [CBK036386T] | 124% | 97.2% | 57.7% | 69.4% | 59.6% | 46.9% | 99% | 101% | 101%
Cc1ccc2[nH]c3c(c2c1)CCOC31CCN(Cc2ccccc2-c2ccccc2)CC1 [CBK039915] | 69.3% | 33.8% | 27.9% | 27.9% | 15.9% | 7.2% | 99.1% | 93.6% | 100%
Fc1cc(CN2CCC3(CC2)OCCc2c3[nH]c3ccc(Br)cc23)cc(F)c1F [CBK039943] | 121% | 66.6% | 46.8% | 102% | 32.3% | 21.4% | 98.2% | 92.1% | 90.4%
CC(C)c1ccc(S(=O)(=O)Nc2cccc(SC(F)(F)F)c2)cc1 [CBK044581] | 113% | 76% | 82.6% | 116% | 69.4% | 80.6% | 96.5% | 95.7% | 103%
CCc1nnc(NS(=O)(=O)c2ccc(NC(=S)Nc3ccc(F)cc3)cc2)s1 [CBK050037] | 72% | 22.8% | 13.7% | 98.5% | 26.5% | 17.6% | 98.2% | 89.3% | 93.2%
